Source: patent US20230404985A1, “METHODS OF TREATING TUMORS AND CANCERS HAVING DYSREGULATED WNT SIGNALING PATHWAYS” (ICAHN SCHOOL OF MEDICINE AT MOUNT SINAI, priority 2020, published 2023)

Columns and labels:
[1] = system: KIT and its downstream effector the prenyl-binding protein PDE6D; assay: NanoBRET live cell target engagement, KIT and PDE6D; type: cell-based
[2] = system: pT367 EZH2 and pT71 ATF2; conditions: MYC-CTNNB1 organoids; WNTinib 1 μM, sorafenib 10 μM, SB202190 10 μM; 48 hours time course
Description: Tumor organoids were grown in 24 well plates and were collected in Cell Recovery Solution (Corning) after drug treatment. Tumor organoids were left to rotate at 4° C. for one hour in order to dissolve the Matrigel. Tumor organoids were spun down at 300 g at 4° C. for 5 minutes. Pellets were lysed in 2× Laemmli buffer (+4% 2-mercaptoethanol) by heating at 95° C. for 10 minutes followed by 5 seconds of sonication. SDS-PAGE was run using standard procedures.

[3] = system: MYC-Tp53 tumor organoid allografts; assay: MYC-Tp53 tumor organoid allografts; type: in vivo, C57BL/6J mice; conditions: 30 mg/kg daily oral gavage
Description: 300,000 cells per allograft were prepared in 8 mg/mL Matrigel. 6-8-week-old C57BL/6J mice were shaved the day prior to injection. A 26^5/8-gauge needle was used to implant organoids into the flank in 100 μL Matrigel. Tumor allografts were measured daily with calipers, and upon an average volumetric measurement of 100 mm^3, animals were randomized and drug dosing was started. Drugs were dosed daily at 30 mg/kg via oral gavage. Tumor allografts were also measured daily.
MYC-CTNNB1 tumor organoids were engrafted into C57BL/6 mice and treatment was started when tumor volume reached 100 mm^3.

Row | SMILES | activity in MYC-Tp53 allografts [3] | also measured
1 | CNC(=O)c1cc(Oc2ccc(NC(=O)Nc3ccc(C(F)(C(F)(F)F)C(F)(F)F)cc3)c(F)c2)ccn1 [8-50-2, 4-(3-fluoro-4-(3-(4-(perfluoropropan-2-yl)phenyl)ureido)phenoxy)-N-methylpicolinamide] |  | binding on KIT and PDE6D, comparison of WNTinib with 8-50-2 [1]: significant differences in binding
2 | Oc1ccc(-c2nc(-c3ccncc3)c(-c3ccc(F)cc3)[nH]2)cc1 [SB202190] |  | temporal inhibition of pT367 EZH2 and pT71 ATF2 [2]: transient inhibition
3 | COc1cc2nccc(Oc3ccc(NC(=O)NC4CC4)c(Cl)c3)c2cc1C(N)=O [lenvatinib] | better activity | 
4 | CNC(=O)c1cc(Oc2ccc(NC(=O)Nc3ccc(Cl)c(C(F)(F)F)c3)c(F)c2)ccn1 [regorafenib] | better activity | 
